Test results taken from PubChem BioAssay (NCI).
Values joined by “and” are separate entries in the source; they are usually repeats but may differ in a detail not shown here. Equal entries are not always repeated.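 Protocol summary: plate cells (96-well), add compound at 5 concentrations, incubate 48 h, interpolate endpoints linearly. GI50: concentration for 50% inhibition of growth. TGI: concentration producing complete growth inhibition.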

Legend:
Experiment in all cases: DTP human tumour cell line panel, 48 h
A549 NSCLC = system: A549 NSCLC
KM20L2 colon = system: KM20L2 colon
M19-MEL melanoma = system: M19-MEL melanoma
NCI-H226 lung = system: NCI-H226 lung
NCI-H23 lung = system: NCI-H23 lung
OVCAR-5 ovarian = system: OVCAR-5 ovarian
OVCAR-8 ovarian = system: OVCAR-8 ovarian
SNB-75 CNS = system: SNB-75 CNS
DMS 114 small cell lung = system: DMS 114 small cell lung
U251 CNS = system: U251 CNS

SMILES	TGI (A549 NSCLC)	TGI (KM20L2 colon)	TGI (M19-MEL melanoma) [µM]	TGI (NCI-H226 lung) [µM]	TGI (NCI-H23 lung)	TGI (OVCAR-5 ovarian)	TGI (OVCAR-8 ovarian)	TGI (SNB-75 CNS) [µM]	TGI (DMS 114 small cell lung) [µM]	TGI (U251 CNS)	GI50 (A549 NSCLC) [µM]	GI50 (KM20L2 colon) [µM]	GI50 (NCI-H23 lung) [µM]	GI50 (OVCAR-5 ovarian) [µM]	GI50 (OVCAR-8 ovarian) [µM]	GI50 (U251 CNS) [µM]	GI50 (M19-MEL melanoma) [µM]	GI50 (NCI-H226 lung) [µM]	GI50 (SNB-75 CNS) [µM]
Cc1ccc(S(=O)(=O)OC[C@@H]2CO2)cc1	> 100 µM	> 100 µM	> 100	> 100	> 100 µM	> 100 µM	> 100 µM	> 100	–	–	–	–	–	–	–	–	–	–	–
NC1=NCCC1(c1ccccc1)c1ccccn1 (stereo not drawn)	> 100 µM	> 100 µM	> 100	> 100	> 100 µM	> 100 µM	> 100 µM	> 100	> 100	> 100 µM	–	–	–	–	–	–	–	–	–
COC(=O)c1ccccc1NC(=O)C(=O)Cc1nc2c3c(ccc2[nH]c1=O)C(=O)c1ccccc1C3=O	62.1 µM	> 100 µM	23.9	16.7	47.2 µM	> 100 µM	> 100 µM	> 100	> 100	35.9 µM	–	–	–	–	–	–	–	–	–
COc1cc2ccnc([C@@H](OC(=O)c3ccccc3)c3ccc(OC)c(OC)c3OC)c2cc1OC	> 100 µM	> 100 µM	> 100	> 100	> 100 µM	> 100 µM	> 100 µM	> 100	> 100	> 100 µM	–	–	–	–	–	–	–	–	–
O=C(CCc1nc(=S)[nH][nH]1)Nc1ccc(Cl)c(Cl)c1	> 100 µM	31.6 µM	> 100	> 100	> 100 µM	> 100 µM	> 100 µM	75.5	> 100	> 100 µM	–	–	–	–	–	–	–	–	–
Cc1nc2c(ccc3ncccc32)[nH]1	> 100 µM	> 100 µM	> 100	–	> 100 µM	> 100 µM	> 100 µM	> 100	> 100	> 100 µM	–	–	–	–	–	–	–	–	–
Cc1c(C(=O)C/C(=N/NC(=O)c2ccccc2O)C(=O)Nc2ccccc2C(C)C)[n+](=O)c2ccccc2n1[O-]	> 100 µM	> 100 µM	> 100	> 100	52.8 µM	> 100 µM	> 100 µM	> 100	60.8	> 100 µM	–	–	–	–	–	–	–	–	–
O=C(Nc1ccccc1)c1c(O)[nH]c(=S)[nH]c1=O	82.6 µM and 147 µM	125 µM and > 250 µM	118	107	82.6 µM and > 250 µM	110 µM and > 250 µM	76.7 µM and > 250 µM	91.9	69	109 µM and > 250 µM	36.7	87.2	83.6	89.6	41.3	66.5	–	–	–
CCCCCCCCCCCC(=O)OCCOCCOCCOCCOCCOCc1ccccc1	> 100 µM	> 100 µM	> 100	> 100	> 100 µM	> 100 µM	> 100 µM	> 100	> 100	> 100 µM	–	–	–	–	–	–	–	–	–
CC1(C)C(=O)/C=C\C(=O)C(C)(C)C2=CC=C(O2)C(C)(C)C(=O)/C=C\C(=O)C(C)(C)C2=CC=C1O2	> 100 µM	> 100 µM	> 100	> 100	> 100 µM	> 100 µM	> 100 µM	–	–	> 100 µM	–	–	–	–	–	–	–	–	–
CCOC(=O)C(C)(C)Oc1ccc2c(-c3ccccc3)cc(=O)oc2c1	> 100 µM	> 100 µM	98	87.4	> 100 µM	–	> 100 µM	56.5	64.1	> 100 µM	–	–	–	–	–	–	–	–	–
CCOC(=O)CCC1(C(=O)OCC)CCCCC1=O (stereo not drawn)	> 100 µM	> 100 µM	> 100	–	> 100 µM	> 100 µM	> 100 µM	> 100	> 100	> 100 µM	–	–	–	–	–	–	–	–	–
CCCC1C(=O)CCc2c(OC)ccc(OC)c21 (stereo not drawn)	> 100 µM	> 100 µM	> 100	–	> 100 µM	> 100 µM	> 100 µM	> 100	> 100	> 100 µM	–	–	–	–	–	–	–	–	–
CN(C)N=Nc1ccc(C(N)=O)cc1	> 100 µM	> 100 µM	> 100	> 100	> 100 µM	> 100 µM	> 100 µM	> 100	> 100	> 100 µM	–	–	–	–	–	–	–	–	–
CN(C)C(=S)N=C(Nc1ccccc1)Nc1ccccc1	> 100 µM	> 100 µM	> 100	> 100	> 100 µM	> 100 µM	> 100 µM	> 100	> 100	> 100 µM	–	–	–	–	–	–	–	–	–
OCC1=CC(NC2CC(CO)C(O)C(O)C2O)C(O)C(O)C1O (stereo not drawn)	> 100 µM	–	> 100	> 100	> 100 µM	–	> 100 µM	> 100	> 100	> 100 µM	–	–	–	–	–	–	–	–	–
C1=C2/CC[C@H](Sc3ccccc3)C2C2(CCCCC/1)OCCO2 (stereo partly drawn)	–	37.1 µM	33.5	60.4	63.3 µM	–	> 100 µM	88.2	–	> 100 µM	–	–	–	–	–	–	–	–	–
CCN(CC)CCSc1c2ccccc2nc2cc(NCC(=O)Nc3ccccc3-c3ccccc3NC(=O)CNc3ccc4c(SCCN(CC)CC)c5ccccc5nc4c3)ccc12	> 100 µM	> 100 µM	> 54.7	> 100	> 100 µM	> 100 µM	> 100 µM	> 100	–	> 100 µM	–	–	–	–	–	–	–	–	–
O=C1/C(=C/c2ccc(O)c(O)c2)CCC/C1=C\c1ccc(O)c(O)c1	> 50.2 µM	23.8 µM	12.3	9.43	11.3 µM	31.2 µM	4.42 µM	12.9	–	15.7 µM	–	–	–	–	–	–	–	–	–
CC(=O)[CH-]C(=O)c1ccccc1.CC(=O)[CH-]C(=O)c1ccccc1.CN(C)c1ccc([O-])cc1.CN(C)c1ccc([O-])cc1.Cl.[Ti+4]	> 31.6 µM	> 31.6 µM	26.4	30.9	> 31.6 µM	> 100 µM	> 31.6 µM	> 31.6	–	> 31.6 µM	29	20.4	21.1	49.2	21.9	> 31.6	15.1	18.2	> 31.6
O=C(Nc1nc2ccc([N+](=O)[O-])cc2s1)C(=O)C(C1OC(=O)c2ccccc21)[N+](=O)[O-] (stereo not drawn)	> 100 µM	> 100 µM	> 100	> 100	> 100 µM	> 100 µM	> 100 µM	> 100	–	> 100 µM	–	–	–	–	–	–	–	–	–
